# pIC50: −log10 of the molar value.
# Key:
# IKZF3 = molecular target: T1, IKZF3 (Homo sapiens, UniProt Q96SW2+Q9UKT9); assay: Degradation of IKZF3 in L363 cells by Western blot; type: cell-based; conditions: compound 1000 nM, 16 hours
# T1 construct: endogenous in cells; host or cells: L363 cells
# Protocol: (§1) The 24-well cell culture plate was inoculated with 0.95 mL L363 cells (Nanjing Co-bioer) per well with a cell density of 6×10^5 cells/well. The cell plate was placed in a 5% carbon dioxide incubator and cultured at 37° C. for 8 hours, then 50 μL of compound solution was added. The final concentration of the compound was 1000 nM. After continuing to culture for 16 hours, the cells were collected into a 1.5 mL centrifuge tube and centrifuged at 3000 rpm and 4° C. for 5 minutes. Cell precipitation was washed twice with 1×DPBS, resuspended cells were lysed with 100 μL lysate (cell lysate was Western and IP cell lysate (Beyotime), supplemented with 1 mM mixture of phenylmethylsulfonyl fluoride and protease inhibitor (Beyotime)), left on ice for 30 minutes, then centrifuged at 14000 g at 4° C. for 10 minutes, and the supernatant was taken to detect IKZF1 and IKZF3 protein level by Western blot.
# (§2) The total protein concentration in the supernatant of cell lysis was determined by BCA protein quantitative kit (Tiangen). According to the concentration of total protein detected by BCA, the supernatant was adjusted to […] with PBS and 5×SDS-PAGE protein loading buffer (Beyotime), bathed in water at 100° C. for 10 minutes, then placed in ice bath for 5 minutes, centrifuged at 14000 g and 4° C. for 5 minutes, and then collected as WB loading sample. Prefabricated glue (KeyGEN) was used for protein electrophoresis with a loading amount of 10 μL (total protein 2 μg). After Tris-MOPS-SDS electrophoresis solution (Adamas), 120V constant pressure electrophoresis was performed. After electrophoresis, the protein on the adhesive strip was transferred to PVDF membrane with a constant current of […] for 50 minutes. After the membrane was transferred, the membrane was incubated in 5% bovine serum albumin solution for 2 hours at room temperature. After blocking, PVDF membranes were incubated with IKZF1 primary antibody (CST) and IKZF3 primary antibody (Abcam) overnight at 4°, the membranes were washed with TBST buffer (2.4 g Tris, 8.8 g NaCl, 1.5 mL Tween 20, pH adjusted to 7.4, constant volume to 1 L) for 30 minutes, incubated with secondary antibody (Abcam) for 2 hours at room temperature, finally incubated with Clarity Western ECL Substrate (BIO-RAD) for 5 minutes for luminescence development, chemiluminescence imaging system (Clinx, chemiScope 6200 Touch) was used for development and protein mapping photography. The protein map was analyzed by Clinx chemiluminescence analysis software for grayscale values. Using the formula: grayscale correction value=(target protein grayscale value/corresponding internal reference grayscale value)×10^3, the grayscale correction value of each sample was calculated. The degradation rate was calculated by comparing with the grayscale correction value of the control group.
# IKZF1 = molecular target: T2, IKZF1 (Homo sapiens, UniProt Q13422+Q96SW2); assay: Degradation of IKZF1 in L363 cells by Western blot; type: cell-based; conditions: compound 1000 nM, 16 hours
# T2 construct: endogenous in cells; host or cells: L363 cells
# T2 sequence (Q13422 whole entry): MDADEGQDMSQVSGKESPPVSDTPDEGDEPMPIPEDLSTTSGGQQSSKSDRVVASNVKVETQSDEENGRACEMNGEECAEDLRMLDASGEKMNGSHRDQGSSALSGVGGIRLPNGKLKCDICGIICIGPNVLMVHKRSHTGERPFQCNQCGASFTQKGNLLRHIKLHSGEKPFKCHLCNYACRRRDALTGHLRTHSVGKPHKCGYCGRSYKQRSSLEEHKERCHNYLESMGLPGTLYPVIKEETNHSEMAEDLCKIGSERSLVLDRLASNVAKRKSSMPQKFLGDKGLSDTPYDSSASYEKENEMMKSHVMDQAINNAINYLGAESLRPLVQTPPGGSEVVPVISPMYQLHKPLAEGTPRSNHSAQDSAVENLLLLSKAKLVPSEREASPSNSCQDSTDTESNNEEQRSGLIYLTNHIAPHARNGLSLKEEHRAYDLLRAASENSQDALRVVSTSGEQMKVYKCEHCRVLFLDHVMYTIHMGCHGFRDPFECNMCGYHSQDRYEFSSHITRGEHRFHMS
# T2 sequence (Q96SW2 whole entry): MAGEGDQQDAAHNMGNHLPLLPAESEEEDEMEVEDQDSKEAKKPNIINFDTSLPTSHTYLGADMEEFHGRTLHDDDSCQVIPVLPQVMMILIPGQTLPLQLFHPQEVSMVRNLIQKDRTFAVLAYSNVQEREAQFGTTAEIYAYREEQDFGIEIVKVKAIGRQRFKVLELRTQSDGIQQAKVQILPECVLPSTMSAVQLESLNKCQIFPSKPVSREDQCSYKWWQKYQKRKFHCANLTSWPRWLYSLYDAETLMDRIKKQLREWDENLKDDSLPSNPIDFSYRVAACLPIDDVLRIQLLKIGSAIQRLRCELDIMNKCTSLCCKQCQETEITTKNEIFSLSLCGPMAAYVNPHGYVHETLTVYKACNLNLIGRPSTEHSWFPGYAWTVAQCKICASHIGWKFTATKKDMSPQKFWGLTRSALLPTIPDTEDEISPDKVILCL
# T2 sequence (Q16531 whole entry partner): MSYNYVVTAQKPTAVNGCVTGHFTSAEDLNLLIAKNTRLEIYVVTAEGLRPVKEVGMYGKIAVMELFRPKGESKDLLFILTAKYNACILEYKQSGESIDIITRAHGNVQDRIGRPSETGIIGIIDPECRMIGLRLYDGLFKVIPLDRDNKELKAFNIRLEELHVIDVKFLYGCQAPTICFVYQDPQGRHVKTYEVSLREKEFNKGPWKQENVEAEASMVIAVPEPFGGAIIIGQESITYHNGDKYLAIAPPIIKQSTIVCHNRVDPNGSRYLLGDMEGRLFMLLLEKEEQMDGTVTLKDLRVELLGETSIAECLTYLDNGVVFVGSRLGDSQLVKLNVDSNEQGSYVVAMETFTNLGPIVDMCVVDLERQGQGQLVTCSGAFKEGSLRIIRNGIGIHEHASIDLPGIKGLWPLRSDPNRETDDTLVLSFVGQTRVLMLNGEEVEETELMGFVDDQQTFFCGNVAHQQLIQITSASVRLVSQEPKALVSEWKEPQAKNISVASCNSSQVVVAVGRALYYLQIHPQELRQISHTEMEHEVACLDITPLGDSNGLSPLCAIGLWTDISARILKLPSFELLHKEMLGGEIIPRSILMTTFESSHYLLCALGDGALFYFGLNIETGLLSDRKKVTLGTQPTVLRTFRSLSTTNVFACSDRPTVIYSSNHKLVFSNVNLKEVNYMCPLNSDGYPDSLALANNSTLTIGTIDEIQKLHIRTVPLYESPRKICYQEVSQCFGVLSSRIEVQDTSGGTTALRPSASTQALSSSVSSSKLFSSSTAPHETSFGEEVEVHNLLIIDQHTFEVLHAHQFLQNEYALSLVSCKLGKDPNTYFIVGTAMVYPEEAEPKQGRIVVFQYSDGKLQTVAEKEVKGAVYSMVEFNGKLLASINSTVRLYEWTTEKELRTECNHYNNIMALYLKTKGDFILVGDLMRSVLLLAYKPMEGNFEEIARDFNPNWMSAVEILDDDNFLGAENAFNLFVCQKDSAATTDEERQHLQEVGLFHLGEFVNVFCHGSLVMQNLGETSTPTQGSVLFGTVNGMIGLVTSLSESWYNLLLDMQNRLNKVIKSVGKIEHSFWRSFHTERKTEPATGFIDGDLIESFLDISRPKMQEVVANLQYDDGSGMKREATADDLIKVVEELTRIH
# Protocol: as §1, §2
# [1] = molecular target: T3, IRAK4 kinase protein in THP-1 cells (Homo sapiens, UniProt Q9NWZ3); assay: Degradation of IRAK4 in THP-1 cells by Western Blot; type: cell-based; conditions: 24 hours; for Dmax / DC50: IRAK4 degradation in THP-1 cells; for Dmax: read-out: WB Dmax; for WB D(%) (300 nM) / WB D(%) (1000 nM): degradation percentage of IRAK4 in THP-1 cells; for WB D(%) (300 nM): compound 300 nM; for WB D(%) (1000 nM): compound 1000 nM; for DC50: read-out: WB DC50
# T3 construct: endogenous in cells; host or cells: THP-1 cells
# T3 sequence (Q9NWZ3 1-460): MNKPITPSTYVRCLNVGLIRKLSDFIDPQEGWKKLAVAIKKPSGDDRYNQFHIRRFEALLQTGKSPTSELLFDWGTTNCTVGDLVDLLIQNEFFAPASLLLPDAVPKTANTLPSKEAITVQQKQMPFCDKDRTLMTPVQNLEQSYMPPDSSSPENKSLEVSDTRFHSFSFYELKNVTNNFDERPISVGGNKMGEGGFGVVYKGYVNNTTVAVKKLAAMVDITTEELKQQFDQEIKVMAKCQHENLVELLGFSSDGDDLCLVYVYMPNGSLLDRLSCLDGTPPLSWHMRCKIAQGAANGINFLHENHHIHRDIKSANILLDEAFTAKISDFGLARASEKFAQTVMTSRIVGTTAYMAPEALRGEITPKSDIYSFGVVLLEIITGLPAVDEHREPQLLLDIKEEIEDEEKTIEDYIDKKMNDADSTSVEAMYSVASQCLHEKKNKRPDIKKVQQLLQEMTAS
# Protocol: Each well of the 24-well cell culture plate was inoculated with 0.95 mL THP-1 cells (stem cell bank of Chinese academy of sciences) with a cell density of 5×10^5 cells/well. The cell plate was placed in a 5% carbon dioxide incubator and cultured overnight at 37° C., then 50 μL compound in dimethyl sulfoxide was added. The final concentration of the compound was in the range of 1-3000 nM. After continuous cultivation for 24 hours, the cells were collected into a 1.5 mL centrifuge tube, centrifuged at 1000 rpm and 4° C. for 5 minutes. Cell precipitation was washed twice with 1×DPBS, resuspended cells were lysed with 200 μL lysate (cell lysate was Western and IP cell lysate (Beyotime), supplemented with 1 mM mixture of phenylmethylsulfonyl fluoride and protease inhibitor (Beyotime)), left on ice for 30 minutes, then centrifuged at 14000 g at 4° C. for 10 minutes, and the supernatant was taken to detect IRAK4 protein level by Western blot.
# The total protein concentration in the supernatant of cell lysis was determined by BCA protein quantitative kit (Tiangen). According to the concentration of total protein detected by BCA, the supernatant was adjusted to […] with PBS and 5×SDS-PAGE protein loading buffer (Beyotime), bathed in water at 100° C. for 10 minutes, then placed in ice bath for 5 minutes, centrifuged at 14000 g and 4° C. for 5 minutes, and then collected as WB loading sample. Prefabricated glue (KeyGEN) was used for protein electrophoresis with a loading amount of 10 μL (total protein 2 μg). After Tris-MOPS-SDS electrophoresis solution (Adamas), 120V constant pressure electrophoresis was performed. After electrophoresis, the protein on the adhesive strip was transferred to PVDF membrane with a constant current of […] for 50 minutes. After the membrane was transferred, the membrane was added in 1×QuickBlock blocking buffer (Beyotime) and incubated for 30 minutes at room temperature. After blocking, PVDF membranes were incubated with IRAK4 primary antibody (Abcam) overnight at 4°, the membranes were washed with TBST buffer (2.4 g Tris, 8.8 g NaCl, 1.5 mL Tween 20, pH adjusted to 7.4, constant volume to 1 L) for 30 minutes, incubated with secondary antibody (Abcam) for 2 hours at room temperature, finally incubated with Clarity Western ECL Substrate (BIO-RAD) for 5 minutes for luminescence development, chemiluminescence imaging system (Clinx, chemiScope 6200 Touch) was used for development and protein mapping photography. The protein map was analyzed by Clinx chemiluminescence analysis software for grayscale values. Using the formula: grayscale correction value=(target protein grayscale value/corresponding internal reference grayscale value)×[…], the grayscale correction value of each sample was calculated. The degradation rate was calculated by comparing with the grayscale correction value of the control group. Furthermore, DC50 and Dmax values of the compound were obtained by the nonlinear curve fitting with the logarithmic concentration-inhibition rate by GraphPad Prism 7.
# [2] = Pharmacokinetic study in mice; type: in vivo, SD mice
# Protocol: The following experimental scheme was used to study the pharmacokinetic behavior of the compound of the present invention in mice and evaluate its pharmacokinetic characteristics.
# Experimental scheme: 3 healthy SD mice, male, weighing […], were given 100 mg/kg compound by gavage with a volume of 10 mL/kg, prepared with […] (w/v). Before the test, they were fasted for 12 hours and freely drank water. Food was uniformly consumed 4 h after administration.
# Three healthy SD mice, male, weighing […], were given 1 mg/kg compound intravenously with a volume of 5 mL/kg, prepared with 5% DMSO/15% solutol %80% PBS (w/v). Before the test, they were fasted for 12 hours and freely drank water. Food was uniformly consumed 4 h after administration.
# 0.1 mL of venous blood was taken through the submaxillary venous plexus of mice at 0.08 h, 0.25 h, 0.5 h, 1 h, 2 h, 4 h, 8 h, 24 h after gavage administration and 0.08 h, 0.25 h, 0.5 h, 1 h, 2 h, 4 h, 8 h, 24 h after intravenous administration, placed in a heparin test tube, centrifuged at 11000 rpm for 5 min, and plasma was separated, the concentration of compounds in plasma was determined by liquid chromatography-tandem mass spectrometry.
# IRAK4 kinase = molecular target: T4, IRAK4 kinase (Homo sapiens, UniProt Q9NWZ3); assay: IRAK4 kinase activity test (KinEASE-STK HTRF kit); type: biochemical; conditions: IRAK4 kinase inhibition, 7 μM ATP, 37° C. 120 min
# T4 sequence (Q9NWZ3 1-460): T3 sequence (Q9NWZ3 1-460)
# Protocol: KinEASE-STK Si serine/threonine kinase kit (Cisbio) was used to detect the inhibitory effect of the compound on IRAK4 kinase activity. The specific method was: the compound was dissolved in dimethyl sulfoxide, and then it was diluted with the buffer solution of the kit by equal gradient to make the final concentration range of the tested compound in the reaction system 10000 nM-0.038 nM, then 2.5 nM kinase, 1 μM biotinylated polypeptide substrate and 7 μM adenosine triphosphate (ATP) were added in sequence and incubated at 37° C. for 120 min. Subsequently, anti-phosphorylated serine/threonine antibody coupled with europium element compound and modified XL665 streptavidin were added to the reaction system to terminate the reaction. After incubating at room temperature for 1 h, the fluorescence intensity of each well at the emission wavelength of 620 nm and 665 nm and the excitation wavelength of 337 nm was determined in HTRF mode on the microplate reader EnVision (PerkinElmer), the ratio value was calculated using the formula Ratio=(665 nm/620 nm)×10^4. By comparing with the fluorescence intensity ratio of the control group, the inhibition rate of the compound at each concentration was calculated, and then the IC50 value of the compound was obtained by fitting the nonlinear curve with the logarithmic concentration-inhibition rate by GraphPad Prism 7.
# [3] = male, SD, mouse, po, gavage administration 100 mg/kg, plasma
# T1 sequence (Q9UKT9 whole entry): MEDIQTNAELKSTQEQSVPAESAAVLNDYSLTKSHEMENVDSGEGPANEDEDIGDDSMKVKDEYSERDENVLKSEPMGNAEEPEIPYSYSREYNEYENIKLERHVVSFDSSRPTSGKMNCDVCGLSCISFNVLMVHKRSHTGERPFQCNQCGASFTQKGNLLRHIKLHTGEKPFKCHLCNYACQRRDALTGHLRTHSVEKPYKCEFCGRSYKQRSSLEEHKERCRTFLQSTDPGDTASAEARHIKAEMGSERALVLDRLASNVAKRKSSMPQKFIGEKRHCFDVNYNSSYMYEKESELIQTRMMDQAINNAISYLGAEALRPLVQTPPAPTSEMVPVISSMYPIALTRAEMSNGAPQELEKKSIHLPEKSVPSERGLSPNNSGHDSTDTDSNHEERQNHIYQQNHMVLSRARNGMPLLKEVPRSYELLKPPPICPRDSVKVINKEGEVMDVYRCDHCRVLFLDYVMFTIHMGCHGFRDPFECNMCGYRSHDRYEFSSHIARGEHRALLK
# T1 sequence (Q96SW2 whole entry): as the sequence (Q96SW2 whole entry) above
# T1 sequence (Q16531 whole entry partner): as the sequence (Q16531 whole entry partner) above
IKZF3 degradation rate (%) (IKZF3),IKZF1 degradation rate (%) (IKZF1),Dmax [1],WB D(%) (300 nM) [1],WB D(%) (1000 nM) [1],CL_pred ([2]; intravenous injection 1 mg/kg),Vss_pred ([2]; intravenous injection 1 mg/kg),"AUC(0-t) ([2]; male, SD, mouse, intravenous injection 1 mg/kg, plasma)","bioavailability ([2]; male, SD, mouse, plasma, po, gavage 100 mg/kg vs intravenous 1 mg/kg)","AUC(0-t) [2, 3]","Cmax [2, 3]",DC50 [1],pIC50 (IRAK4 kinase),Compound
71.2 ± 5.7%,47.5 ± 9.7%,85.1%,79.7%,85.7%,91.7 mL/min/kg,109.4 L/kg,122 ng·h/mL,14%,1720 ng·h/mL,150 ng/mL,–,–,"COc1cc2nn(C3CCN(CC4CCN(CCOc5ccc6c(c5)C(=O)N(C5CCC(=O)NC5=O)C6=O)CC4)CC3)cc2cc1NC(=O)c1cccc(C(F)(F)F)n1 (centres unmarked) [Control group 2, N-(2-(1-((1-(2-((2-(2,6-dioxopiperidin-3-yl)-1,3-dioxoisoindol-5-yl)oxy)ethyl)piperidin-4-yl)methyl)piperidin-4-yl)-6-methoxy-2H-indazol-5-yl)-6-(trifluoromethyl) pyridinecarboxamide, reference compound]"
92.8 ± 5.0%,97.2 ± 2.6%,–,–,–,–,–,–,–,–,–,–,–,"CN(CC1CCN(c2cccc3c2C(=O)N(C2CCC(=O)NC2=O)C3=O)CC1)C[C@H]1CC[C@H](n2cc3cc(NC(=O)c4cccc(C(F)(F)F)n4)c(C(C)(C)O)cc3n2)CC1 (some centres unmarked) [Control group 3, N-(2-((1r,4r)-4-((((1-(2-(2,6-dioxopiperidin-3-yl)-1,3-dioxoisoindolin-4-yl)piperidin-4-yl)methyl)(methyl)amino)methyl)cyclohexyl)-6-(2-hydroxyprop-2-yl)-2H-indazol-5-yl)-6-(trifluoromethyl) pyridinecarboxamide, reference compound]"
−4.5 ± 2.9%,4.3 ± 0.8%,99.9%,99.5%,99.9%,–,–,–,–,–,–,0.0017 µM,7.75,"CC(C)(O)c1cc2nn(C3CCN(CCN4CCN(c5ccc6c(c5)C(=O)N(C5CCC(=O)NC5=O)C6=O)CC4)CC3)cc2cc1NC(=O)c1cccc(C(F)(F)F)n1 (centres unmarked) [Example 4, N-(2-(1-(2-(4-(2-(2,6-dioxopiperidin-3-yl)-1,3-dioxoisoindolin-5-yl)piperazin-1-yl)ethyl)piperidin-4-yl)-6-(2-hydroxyprop-2-yl)-2H-indazol-5-yl)-6-(trifluoromethyl) pyridinecarboxamide]"
22.4 ± 6.6%,18.8 ± 2.7%,92.4%,91.3%,89.5%,–,–,–,–,–,–,0.0121 µM,7.39,"CC(C)(O)c1cc2nn(C3CCN(CCC4CCN(c5ccc6c(c5)C(=O)N(C5CCC(=O)NC5=O)C6=O)CC4)CC3)cc2cc1NC(=O)c1cccc(C(F)(F)F)n1 (centres unmarked) [Example 5, N-(2-(1-(2-(1-(2-(2,6-dioxopiperidin-3-yl)-1,3-dioxoisoindolin-5-yl)piperidin-4-yl)ethyl)piperidin-4-yl)-6-(2-hydroxyprop-2-yl)-2H-indazol-5-yl)-6-(trifluoromethyl) pyridinecarboxamide]"
98.6 ± 0.6%,99.7 ± 0.2%,–,–,–,–,–,–,–,–,–,–,–,"Nc1cccc2c1C(=O)N(C1CCC(=O)NC1=O)C2=O (centres unmarked) [Pomalidomide, reference compound]"

# Reference: patent US12624019B2, “Indazole derivative, and preparation method therefor and use thereof” (Leadingtac Pharmaceutical (Shaoxing) Co., Ltd., priority 2020, dated 2026)
